Laboratory results from US20060069132A1, “Azolecarboxamide herbicides” (priority 2004, published 2006).

What was measured:
barnyardgrass [1] = experiment: Test A pre-/postemergence herbicide test; format: in vivo, Echinochloa crus-galli
Procedure, shortened: (§1)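 Greenhouse injury scoring (0–100, complete control = 100) at approximately ten days follows simultaneous pre- and postemergence application. Soil received a directed spray after seeding; seedlings of 2–10 cm at the one- to two-leaf stage were sprayed to runoff.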

redroot pigweed = experiment: Test A pre-/postemergence herbicide test; format: in vivo, Amaranthus retroflexus
Procedure, shortened: as §1

giant foxtail [2] = experiment: Test A pre-/postemergence herbicide test; format: in vivo, Setaria faberi
Procedure, shortened: as §1

ducksalad = experiment: Test B flooded paddy test; format: in vivo, Heteranthera limosa; conditions: scale 0 to 100 (0 no effect, 100 complete control)
Procedure, shortened: (§2)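 Postemergence plants were sprayed with formulated test chemicals at 2 to 18 cm height (1- to 4-leaf stage); paddy species were grown to the 2-leaf stage. After 13 to 15 days in a greenhouse, injury was rated visually against untreated controls on a 0–100 scale (0 = no effect, 100 = complete control).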

barnyardgrass [3] = experiment: Test B flooded paddy test; format: in vivo, Echinochloa crus-galli; conditions: scale 0 to 100 (0 no effect, 100 complete control)
Procedure, shortened: as §2

morningglory [4] = experiment: Test A pre-/postemergence herbicide test; format: in vivo, Ipomoea spp.
Procedure, shortened: as §1

[5] = tested on: small flower umbrella sedge; experiment: Test B flooded paddy test; format: in vivo, Cyperus difformis; conditions: scale 0 to 100 (0 no effect, 100 complete control)
Procedure, shortened: as §2

rice = experiment: Test B flooded paddy test; format: in vivo, Oryza sativa; conditions: scale 0 to 100 (0 no effect, 100 complete control)
Procedure, shortened: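 Each value is a visual 0–100 response rating taken against controls 13 to 15 days after treatment in the greenhouse. Plants received formulated chemical postemergence at the 1- to 4-leaf stage or, in flooded paddy, at the 2-leaf stage.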

velvetleaf [6] = experiment: Test A pre-/postemergence herbicide test; format: in vivo, Abutilon theophrasti
Procedure, shortened: as §1

large crabgrass [7] = experiment: Test A pre-/postemergence herbicide test; format: in vivo, Digitaria sanguinalis
Procedure, shortened: as §1

lambsquarters = experiment: Test B pre-/postemergence herbicide test; format: in vivo, Chenopodium album; conditions: for Lambsquarters plant response rating: scale 0 (no effect) to 100 (complete control)
Procedure, shortened: (§3)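 Evaluation is visual, comparing treated with control plants on a scale where 0 means no effect and 100 means full control. Treatments were preemergence, or postemergence on seedlings 2–18 cm tall, and held 13–15 days in the greenhouse.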

morningglory [8] = experiment: Test B pre-/postemergence herbicide test; format: in vivo, Ipomoea coccinea; conditions: for Morningglory plant response rating: scale 0 (no effect) to 100 (complete control)
Procedure, shortened: (§4)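 Seeds were planted and treated preemergence with compounds formulated in a non-phytotoxic solvent mixture containing surfactant, while plants at the 1- to 4-leaf stage (2 to 18 cm) received postemergence sprays. Flooded paddy plants were grown to the 2-leaf stage. After 13 to 15 days in a greenhouse, injury was visually rated 0–100 against untreated controls.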

pigweed = experiment: Test B pre-/postemergence herbicide test; format: in vivo, Amaranthus retroflexus; conditions: for Pigweed plant response rating: scale 0 (no effect) to 100 (complete control)
Procedure, shortened: as §3

wild oat = experiment: Test B postemergence herbicide test; format: in vivo, Avena fatua; conditions: scale 0 (no effect) to 100 (complete control)
Procedure, shortened: (§5)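 Scale 0–100: zero equals no visible effect, 100 complete control, judged by eye relative to controls. Timing: 13 to 15 days in greenhouse post-treatment. Growth stage at spraying: two leaves (paddy) or one to four leaves, 2–18 cm (postemergence).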

Surinam grass = experiment: Test B pre-/postemergence herbicide test; format: in vivo, Urochloa decumbens; conditions: for Surinam Grass plant response rating: scale 0 (no effect) to 100 (complete control)
Procedure, shortened: as §3

cocklebur = experiment: Test B pre-/postemergence herbicide test; format: in vivo, Xanthium strumarium; conditions: for Cocklebur plant response rating: postemergence
Procedure, shortened: as §4

corn = experiment: Test B pre-/postemergence herbicide test; format: in vivo, Zea mays; conditions: for Corn plant response rating: postemergence
Procedure, shortened: as §3

giant foxtail [9] = experiment: Test B pre-/postemergence herbicide test; format: in vivo, Setaria faberi; conditions: for Foxtail, Giant plant response rating: postemergence
Procedure, shortened: as §3

barnyardgrass [10] = experiment: Test B pre-/postemergence herbicide test; format: in vivo, Echinochloa crus-galli; conditions: for Barnyardgrass plant response rating: postemergence
Procedure, shortened: as §4

velvetleaf [11] = experiment: Test B pre-/postemergence herbicide test; format: in vivo, Abutilon theophrasti; conditions: for Velvetleaf plant response rating: scale 0 (no effect) to 100 (complete control)
Procedure, shortened: as §3

blackgrass = experiment: Test B postemergence herbicide test; format: in vivo, Alopecurus myosuroides; conditions: postemergence
Procedure, shortened: as §2

wheat = experiment: Test B postemergence herbicide test; format: in vivo, Triticum aestivum; design: key to Wheat plant response rating: 0 = no effect, 100 = complete control
Procedure, shortened: as §5

large crabgrass [12] = experiment: Test B pre-/postemergence herbicide test; format: in vivo, Digitaria sanguinalis; conditions: for Crabgrass, Large plant response rating: postemergence
Procedure, shortened: as §3

[13] = Postemergence, 125 g ai/ha, 0 to 100 scale, 0 no effect, 100 complete control
[14] = Postemergence, 500 g ai/ha, 0 to 100 scale, 0 no effect, 100 complete control
[15] = preemergence, 125 g ai/ha, visual injury, 0 to 100 scale (0 no effect, 100 complete control)
[16] = preemergence, 500 g ai/ha, visual injury, 0 to 100 scale (0 no effect, 100 complete control)
[17] = 125 g ai/ha, 0 is no effect, 100 is complete control, preemergence
[18] = 125 g ai/ha, visual rating, postemergence
[19] = 125 g ai/ha, visual rating, scale 0 (no effect) to 100 (complete control)
[20] = 500 g ai/ha, scale 0 to 100, 0 is no effect, 100 is complete control

For `CCn1nc(C(C)(C)C)nc1C(=O)Nc1cc(C(=O)N(C)C)ccc1F` [Compound 450], the “Barnyardgrass plant response rating” value (barnyardgrass [1]; [13]) was 60, the “Barnyardgrass plant response rating” value (barnyardgrass [1]; [14]) was 80 and the “Barnyardgrass plant response rating” value (barnyardgrass [1]; [15]) was 60. The “Barnyardgrass plant response rating” value (barnyardgrass [1]; [16]) was 95, the “Pigweed plant response rating” value (redroot pigweed; [13]) was 20 and the “Pigweed plant response rating” value (redroot pigweed; [14]) was 55. The “Pigweed plant response rating” value (redroot pigweed; [15]) was 25, the “Pigweed plant response rating” value (redroot pigweed; [16]) was 95 and the “Foxtail, Giant plant response rating” value (giant foxtail [2]; [13]) was 50. For the same compound, the “Foxtail, Giant plant response rating” value (giant foxtail [2]; [14]) was 75, the “Foxtail, Giant plant response rating” value (giant foxtail [2]; [15]) was 70 and the “Foxtail, Giant plant response rating” value (giant foxtail [2]; [16]) was 95. For the same compound, the “Ducksalad plant response rating” value (ducksalad; 125 g ai/ha) was 40, the “Ducksalad plant response rating” value (ducksalad; 500 g ai/ha) was 80 and the “Barnyardgrass plant response rating” value (barnyardgrass [3]; 125 g ai/ha) was 50. The “Barnyardgrass plant response rating” value (barnyardgrass [3]; 500 g ai/ha) was 80, the “Morningglory plant response rating” value (morningglory [4]; [13]) was 25 and the “Morningglory plant response rating” value (morningglory [4]; [14]) was 30. For the same compound, the “Morningglory plant response rating” value (morningglory [4]; [15]) was 0, the “Morningglory plant response rating” value (morningglory [4]; [16]) was 15 and the “Sedge, Umbrella plant response rating” value ([5]; 125 g ai/ha) was 60. The “Sedge, Umbrella plant response rating” value ([5]; 500 g ai/ha) was 80, the “Rice plant response rating” value (rice; 125 g ai/ha) was 60 and the “Rice plant response rating” value (rice; 500 g ai/ha) was 80. For the same compound, the “Velvetleaf plant response rating” value (velvetleaf [6]; [13]) was 30, the “Velvetleaf plant response rating” value (velvetleaf [6]; [14]) was 60 and the “Velvetleaf plant response rating” value (velvetleaf [6]; [15]) was 0. For the same compound, the “Velvetleaf plant response rating” value (velvetleaf [6]; [16]) was 35, the “Crabgrass, Large plant response rating” value (large crabgrass [7]; [13]) was 15 and the “Crabgrass, Large plant response rating” value (large crabgrass [7]; [14]) was 70. The “Crabgrass, Large plant response rating” value (large crabgrass [7]; [15]) was 35 and the “Crabgrass, Large plant response rating” value (large crabgrass [7]; [16]) was 70.

For `C#CCNC(=O)c1cccc(NC(=O)c2nn(C(C)C)nc2CC)c1` [Compound 379], the “Plant response rating (0 to 100 scale), Lambsquarters” value (lambsquarters; [17]) was 0, the “Lambsquarters plant response rating” value (lambsquarters; [18]) was 20 and the “Lambsquarters plant response rating” value (lambsquarters; Postemergence, 500 g ai/ha) was 50. The “Plant response rating (0 to 100 scale), Morningglory” value (morningglory [8]; [17]) was 10, the “Morningglory plant response rating” value (morningglory [8]; [18]) was 20 and the “Morningglory plant response rating” value (morningglory [8]; Postemergence, 500 g ai/ha) was 40. For the same compound, the “Plant response rating (0 to 100 scale), Pigweed” value (pigweed; [17]) was 20, the “Pigweed plant response rating” value (pigweed; [18]) was 20 and the “Pigweed plant response rating” value (pigweed; Postemergence, 500 g ai/ha) was 50. The “Oat, Wild plant response rating” value (wild oat; [18]) was 0, the “Oat, Wild plant response rating” value (wild oat; Postemergence, 500 g ai/ha) was 0 and the “Plant response rating (0 to 100 scale), Surinam Grass” value (Surinam grass; [17]) was 0. The “Surinam Grass plant response rating” value (Surinam grass; [18]) was 10, the “Surinam Grass plant response rating” value (Surinam grass; Postemergence, 500 g ai/ha) was 20 and the “Plant response rating (0 to 100 scale), Cocklebur” value (cocklebur; [17]) was 0. The “Cocklebur plant response rating” value (cocklebur; [19]) was 0, the “Cocklebur plant response rating” value (cocklebur; [20]) was 10 and the “Plant response rating (0 to 100 scale), Corn” value (corn; [17]) was 0. For the same compound, the “Corn plant response rating” value (corn; [19]) was 0, the “Corn plant response rating” value (corn; [20]) was 0 and the “Plant response rating (0 to 100 scale), Foxtail, Giant” value (giant foxtail [9]; [17]) was 0. For the same compound, the “Foxtail, Giant plant response rating” value (giant foxtail [9]; [19]) was 10, the “Foxtail, Giant plant response rating” value (giant foxtail [9]; [20]) was 10 and the “Plant response rating (0 to 100 scale), Barnyardgrass” value (barnyardgrass [10]; [17]) was 0. For the same compound, the “Barnyardgrass plant response rating” value (barnyardgrass [10]; [19]) was 0, the “Barnyardgrass plant response rating” value (barnyardgrass [10]; [20]) was 0 and the “Plant response rating (0 to 100 scale), Velvetleaf” value (velvetleaf [11]; [17]) was 10. For the same compound, the “Velvetleaf plant response rating” value (velvetleaf [11]; [18]) was 0, the “Velvetleaf plant response rating” value (velvetleaf [11]; Postemergence, 500 g ai/ha) was 10 and the “Ducksalad plant response rating” value (ducksalad; 1000 g ai/ha) was 70. For the same compound, the “Barnyardgrass plant response rating” value (barnyardgrass [3]; 1000 g ai/ha) was 40, the “Blackgrass plant response rating” value (blackgrass; [19]) was 0 and the “Blackgrass plant response rating” value (blackgrass; [20]) was 0. The “Wheat plant response rating” value (wheat; 125 g ai/ha, visual rating, scale 0 (no effect) to 100 (complete control), postemergence) was 0, the “Wheat plant response rating” value (wheat; 500 g ai/ha, scale 0 to 100, 0 no effect, 100 complete control, preemergence) was 20 and the “Wheat plant response rating” value (wheat; Postemergence, 500 g ai/ha, scale 0 (no effect) to 100 (complete control)) was 0. The “Sedge, Umbrella plant response rating” value ([5]; 1000 g ai/ha) was 70, the “Rice plant response rating” value (rice; 1000 g ai/ha) was 50 and the “Plant response rating (0 to 100 scale), Crabgrass, Large” value (large crabgrass [12]; [17]) was 20. The “Crabgrass, Large plant response rating” value (large crabgrass [12]; [19]) was 10 and the “Crabgrass, Large plant response rating” value (large crabgrass [12]; [20]) was 10.
